Counter-ions that a name gives are not always drawn.
Tests used:
plasma = assay: Determination of anticoagulatory activity: activated partial thromboplastin time (aPTT) in plasma; format: biochemical, human; settings: concentration of test substance which brings about a 1.5-fold extension of the aPTT, C.K. Prest kit, 37° C.
Procedure: a.4) Determination of Anticoagulatory Activity
The anticoagulatory activity of the test substances is determined in vitro in human and animal plasma (for example mouse, rat, rabbit, pig and dog plasma). To this end, blood is drawn off in a mixing ratio of sodium citrate/blood of 1:9 using a 0.11 molar sodium citrate solution as receiver. Immediately after the blood has been drawn off, it is mixed thoroughly and centrifuged at about 4000 g for 15 minutes. The supernatant is pipetted off.
The activated partial thromboplastin time (aPTT) is determined in the presence of varying concentrations of test substance or the corresponding solvent using a commercial test kit (C.K. Prest from Diagnostica Stago). The test compounds are incubated with the plasma and the PTT reagent (cephalin, kaolin) at 37° C. for 3 minutes. Coagulation is then started by addition of a 25 mM aqueous calcium chloride solution, and the time when coagulation occurs is determined. The concentration of test substance which brings about a 1.5-fold extension of the aPTT is determined.

human factor XIa = target: T1, human factor XIa (Homo sapiens, UniProt P03951); assay: Measurement of FXIa inhibition (fluorogenic peptide substrate Boc-Glu(OBzl)-Ala-Arg-AMC); format: biochemical; settings: factor XIa from Kordia, 15 min preincubation, 30 min at 22° C., fluorescence; read-out: IC50
T1 construct: purchased Kordia
T1 sequence (P03951 388-625 limits assumed): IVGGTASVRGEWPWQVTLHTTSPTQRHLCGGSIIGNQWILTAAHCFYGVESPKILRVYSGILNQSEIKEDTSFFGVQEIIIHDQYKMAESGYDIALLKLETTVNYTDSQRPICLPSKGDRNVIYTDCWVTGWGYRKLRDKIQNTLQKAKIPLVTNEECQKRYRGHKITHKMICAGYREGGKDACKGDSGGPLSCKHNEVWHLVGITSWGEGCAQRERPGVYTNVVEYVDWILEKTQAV
T1 sequence (P03951 19-387 partner limits assumed): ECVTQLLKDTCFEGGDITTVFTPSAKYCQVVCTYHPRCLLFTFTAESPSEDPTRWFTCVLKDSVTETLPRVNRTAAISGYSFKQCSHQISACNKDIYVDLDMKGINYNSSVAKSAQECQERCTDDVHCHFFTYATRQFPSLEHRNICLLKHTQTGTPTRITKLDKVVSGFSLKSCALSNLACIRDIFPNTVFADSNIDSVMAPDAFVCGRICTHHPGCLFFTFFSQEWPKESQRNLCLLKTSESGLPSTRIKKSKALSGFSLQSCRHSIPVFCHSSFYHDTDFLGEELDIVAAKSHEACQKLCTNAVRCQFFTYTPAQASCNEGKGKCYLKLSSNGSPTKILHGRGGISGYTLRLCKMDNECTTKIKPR
Procedure: a.1) Measurement of FXIa Inhibition
The factor XIa inhibition of the substances according to the invention is determined using a biochemical test system which utilizes the reaction of a peptidic factor XIa substrate to determine the enzymatic activity of human factor XIa. Here, factor XIa cleaves from the peptic factor XIa substrate the C-terminal aminomethylcoumarin (AMC), the fluorescence of which is measured. The determinations are carried out in microtitre plates.
In each case 1 μl of the diluted substance solutions is placed into the wells of white microtitre plates from Greiner (384 wells). […] After 15 min of incubation, the enzyme reaction is started by addition of 20 μl of the factor XIa substrate Boc-Glu(OBzl)-Ala-Arg-AMC dissolved in assay buffer (10 μM in assay buffer) from Bachem, the mixture is incubated at room temperature (22° C.) for 30 min and fluorescence is then measured (excitation: 360 nm, emission: 460 nm). The measured emissions of the test batches with test substance are compared to those of control batches without test substance (only dimethyl sulphoxide instead of test substance in dimethyl sulphoxide), and IC50 values are calculated from the concentration/activity relationships.

SMILES | Concentration for 1.5-fold aPTT extension (plasma) [µmol/L] | IC50 (human factor XIa) [nM]
CS(=O)(=O)c1ccc(-c2ccc(C[C@H](NC(=O)[C@H]3CC[C@H](CN)CC3)C(=O)Nc3ccc(-c4nn[nH]n4)cc3)cc2)c(C(F)(F)F)c1 [Example 21, trans-4-(Aminomethyl)-N-[(2S)-3-[4′-(methylsulphonyl)-2′-(trifluoromethyl)biphenyl-4-yl]-1-oxo-1-{[4-(2H-tetrazol-5-yl)phenyl]amino}propan-2-yl]cyclohexanecarboxamide hydrochloride] | 0.23 | 0.9
NC[C@H]1CC[C@H](C(=O)N[C@@H](Cc2ccc(-c3ccc(S(N)(=O)=O)cc3)cc2)C(=O)Nc2ccc(-c3nnc(Cl)[nH]3)cc2)CC1 [Example 22, trans-4-(Aminomethyl)-N-[(2S)-1-{[4-(3-chloro-4H-1,2,4-triazol-5-yl)phenyl]amino}-1-oxo-3-(4′-sulphamoylbiphenyl-4-yl)propan-2-yl]cyclohexanecarboxamide hydrochloride] | 0.25 | 1.5
Cc1cc(C#N)ccc1-c1ccc(C[C@H](NC(=O)[C@H]2CC[C@H](CN)CC2)C(=O)Nc2ccc(-c3nn[nH]n3)cc2)cc1 [Example 23, trans-4-(Aminomethyl)-N-[(2S)-3-(4′-cyano-2′-methylbiphenyl-4-yl)-1-oxo-1-{[4-(2H-tetrazol-5-yl)phenyl]amino}propan-2-yl]cyclohexanecarboxamide hydrochloride] | 0.27 | 1.1
Cc1cc(S(=O)(=O)N(C)C)ccc1-c1ccc(C[C@H](NC(=O)[C@H]2CC[C@H](CN)CC2)C(=O)Nc2ccc(-c3nn[nH]n3)c(F)c2)cc1 [Example 24, trans-4-(Aminomethyl)-N-[(2S)-3-[4′-(dimethylsulphamoyl)-2′-methylbiphenyl-4-yl]-1-{[3-fluoro-4-(2H-tetrazol-5-yl)phenyl]amino}-1-oxopropan-2-yl]cyclohexanecarboxamide hydrochloride] | 0.27 | 0.4
NC[C@H]1CC[C@H](C(=O)N[C@@H](Cc2ccc(-c3ccc(N4CCOCC4=O)cc3)cc2)C(=O)Nc2ccc(-c3nn[nH]n3)cc2)CC1 [Example 25, trans-4-(Aminomethyl)-N-[(2S)-1-oxo-3-[4′-(3-oxomorpholin-4-yl)biphenyl-4-yl]-1-{[4-(2H-tetrazol-5-yl)phenyl]amino}propan-2-yl]cyclohexanecarboxamide hydrochloride] | 0.36 | 2.5
CC(=O)Nc1ccc(-c2ccc(C[C@H](NC(=O)[C@H]3CC[C@H](CN)CC3)C(=O)Nc3ccc(-c4nn[nH]n4)cc3)cc2)cc1F [Example 26, trans-N-[(2S)-3-(4′-Acetamido-3′-fluorobiphenyl-4-yl)-1-oxo-1-{[4-(2H-tetrazol-5-yl)phenyl]-amino}propan-2-yl]-4-(aminomethyl)cyclohexanecarboxamide hydrochloride] | 0.4 | 4.7
COc1ccc(-c2ccc(C[C@H](NC(=O)[C@H]3CC[C@H](CN)CC3)C(=O)Nc3ccc(-c4nn[nH]n4)cc3)cc2)c(C(F)(F)F)c1 [Example 27, trans-4-(Aminomethyl)-N-[(2S)-3-[4′-methoxy-2′-(trifluoromethyl)biphenyl-4-yl]-1-oxo-1-{[4-(2H-tetrazol-5-yl)phenyl]amino}propan-2-yl]cyclohexanecarboxamide hydrochloride] | 0.21 | 4.5
CN(C)C1CCC(NS(=O)(=O)c2ccc(-c3ccc(C[C@H](NC(=O)[C@H]4CC[C@H](CN)CC4)C(=O)Nc4ccc5[nH]c(=O)[nH]c5c4)cc3)c(C(F)(F)F)c2)CC1 (stereo partly drawn) [Example 28, trans-4-(Aminomethyl)-N-{(2S)-3-[4′-{[4-(dimethylamino)cyclohexyl]sulphamoyl}-2′-(trifluoromethyl)biphenyl-4-yl]-1-oxo-1-[(2-oxo-2,3-dihydro-1H-benzimidazol-5-yl)amino]propan-2-yl}cyclohexanecarboxamide hydrochloride] | 0.06 | 5.2

Reference: patent publication US20160237044A1, “SUBSTITUTED PHENYLALANINE DERIVATIVES” (BAYER PHARMA AKTIENGESELLSCHAFT, priority 2013, published 2016)
